Measured values taken from PMC12717099, “Peptidoglycan recruitment by a penicillin binding protein” (Nature Communications, 2025).

What was measured:
[1] = tested on: E. faecium D344SRF pCWR624Δpbp5_pbp5_V2; test: Disk diffusion assay, pbp5_V2; format: cell-based, Enterococcus faecium; conditions: strain pbp5_V2 (N523A_Q627A); 37 °C, 24 h; n=3
Method: (§1) The synthetic genes were purchased from GeneWiz (South Plainfield, NJ). The ribosome binding site sequence AGGAGG (Shine-Dalgarno), and a string of five A’s followed by the sequence […], that corresponds to the first 15 bp found in pbp5 from E. faecium C68 were added upstream of the START codon. The terminator sequence […] was added downstream of the STOP codon. BamHI restriction sites were added to the flanking 5′ and 3′ ends. The synthetic genes were inserted into the vector pCWR624Δpbp5. This vector was derived from pCWR624[10], in which the pbp5 gene from D366 was excised by digestion with BamHI followed by re-ligation of the vector, allowing subsequent insertion of modified synthetic pbp5s into the BamHI site downstream of ftsWEfm and psr from E. faecium C68[10]. The synthetic genes were inserted in a BamHI site located downstream of psr. The proper orientation was confirmed by PCR amplification using the forward primer OR_pbp5_FOR_1 (5′-[…]-3′) and the reverse primer OR_pbp5_REV_1 (5′-[…]-3′). Plasmids were sequence verified for the specific binding site mutations. The resulting constructions were electroporated into the natural pbp5(-) mutant E. faecium D344SRF with a selection on brain heart infusion agar (BHI) plates containing kanamycin (1500 µg/ml).
(§2) E. faecium strains were streaked fresh from −80 °C stored glycerol stocks onto brain heart infusion (BHI) agar plates and incubated for 18 h at 37 °C. Strains harboring the plasmid derivatives were grown under antibiotic pressure on agar plates containing kanamycin at 1500 µg/ml. A single colony was inoculated into BHI or BHI-kanamycin (1500 µg/ml) for overnight cultures (18 h).
Antibiotic disks used were manufactured by BD BBL^TM. Disk diffusion assays were performed according to the Clinical and Laboratory Standards Institute (CLSI) guidance. Overnight cultures were inoculated into 3 ml of BHI or BHI-kanamycin (1500 µg/ml) broth with a dilution of 1:100 and incubated until an OD600 of ~0.5 was reached. […] The plates were incubated at 37 °C and the zones of inhibition were measured after 24 h. […]

[2] = tested on: E. faecium D344SRF pCWR624Δpbp5 (empty plasmid); test: MIC by broth microdilution, pCWR624Δpbp5; format: cell-based, Enterococcus faecium; conditions: strain pCWR624Δpbp5; 37 °C, 20 h; n=3
Method: as §1, §2
(§3) MIC determination was performed using a standard broth microdilution technique in duplicate from independent cultures. Overnight cultures were inoculated into 3 ml of BHI or BHI-kanamycin (1500 µg/ml) broth in a dilution of 1:100 and incubated until an OD600 of ~0.5 was reached. Cultures were diluted 1:1000 and inoculated into the 96-well plates with the corresponding antibiotics to be tested. Plates were incubated at 37 °C for 20 h and read by eye. […]

[3] = tested on: E. faecium D344SRF pCWR624Δpbp5_pbp5_V1; test: MIC by broth microdilution, pbp5_V1; format: cell-based, Enterococcus faecium; conditions: strain pbp5_V1 (N523A); 37 °C, 20 h; n=3
Method: as §1, §2, §3

[4] = tested on: PBP5:ceftaroline complex (1:8); test: NMR CSP titration of SP2 into ceftaroline-saturated PBP5; format: binding, Enterococcus faecium; conditions: PBP5:ceftaroline 1:8
Method: Data was processed using Topspin 4.1.4 (Bruker) and analyzed using NMRFAM-SPARKY 1.3 and Poky (build number 20240829)[20],[21]. The sequence-specific backbone assignment of PBP5 is publicly available at BMRBID 51690.
SPs (SP1 to SP7) were titrated into 0.5 mM (^2H,^15N)-labeled and 0.1 mM (^2H,^15N)/^13C ILV labeled PBP5 at molar ratios of 0:1, 5:1, 10:1, 20:1, 40:1, 60:1, and 80:1 (stem peptide/SP:PBP5; molar ratios). 2D [^1H,^15N] TROSY or 2D [^1H,^13C] HMQC spectra were recorded for each titration point. SPs were solubilized in NMR buffer. Chemical shift perturbations (Δδ) between PBP5 and SP bound PBP5 spectra were calculated using Eq. 1,1 Δδppm=ΔδH^2+ΔδX/Y^2 where, X is ^15N or ^13C and Y is the constant i.e., 10 for ^15N and 4 for ^13C.
Residues with significant CSPs were identified by calculating the standard deviation of all CSPs (σ), then excluding any CSPs larger than average+2σ, recalculating σ as a new corrected σ0, and then repetitively removing CSPs above 2σ0 until no additional CSPs can be removed. CSPs above ≥2σ2 was the statistical threshold for ^1H/^15N backbone CSP analysis and ≥2xσ1 for ^1H/^13C methyl ILV data for the interaction of SP1 with PBP5. The same threshold values were used for all other peptides to allow for direct comparison with the SP1/PBP5 interaction. […]

Compound | Zone Size (mm) [Range] [1] | MIC (µg/ml) [Range] [2] | MIC (µg/ml) [Range] [3] | CSPs with ceftaroline-saturated PBP5 vs β-lactam free and PenG-saturated PBP5, in words [4]
CO/N=C(\C(=O)N[C@@H]1C(=O)N2C(C(=O)O)=C(CSc3nc(=O)c(=O)[nH]n3C)CS[C@H]12)c1csc(N)n1 [Ceftriaxone, ceftriaxone] | 24 [24-26] mm | 50 [25-100] µg/ml | 3200 [1600-3200] µg/ml | –
D-Lac-L-Ala-D-iGln-L-Lys(D-iAsn) [SP2] | – | – | – | virtually identical
